Assay results taken from patent US20110243844A1, “SULFONAMIDE DERIVATIVE METABOTROPIC GLUTAMATE R4 LIGANDS” (priority 2008, published 2011).

Legend:
mGluR4 [1] = molecular target: T1, mGluR4 (Homo sapiens, UniProt Q14833); assay: Fluorescent Imaging Plate Reader (FLIPR) assay for mGluR4 potentiators; assay type: cell-based; set-up: expressed in transfected cells; conditions: for EC50: inflection point of curve, potentiation of EC10 concentration of L-AP4 (30 nM), read-out: mGluR4 FLIPR Potency; for Emax: maximal activity relative to response with saturating concentration (10 uM) of agonist L-AP4, read-out: mGluR4 FLIPR % Max Efficacy
T1 sequence (Q14833 33-912): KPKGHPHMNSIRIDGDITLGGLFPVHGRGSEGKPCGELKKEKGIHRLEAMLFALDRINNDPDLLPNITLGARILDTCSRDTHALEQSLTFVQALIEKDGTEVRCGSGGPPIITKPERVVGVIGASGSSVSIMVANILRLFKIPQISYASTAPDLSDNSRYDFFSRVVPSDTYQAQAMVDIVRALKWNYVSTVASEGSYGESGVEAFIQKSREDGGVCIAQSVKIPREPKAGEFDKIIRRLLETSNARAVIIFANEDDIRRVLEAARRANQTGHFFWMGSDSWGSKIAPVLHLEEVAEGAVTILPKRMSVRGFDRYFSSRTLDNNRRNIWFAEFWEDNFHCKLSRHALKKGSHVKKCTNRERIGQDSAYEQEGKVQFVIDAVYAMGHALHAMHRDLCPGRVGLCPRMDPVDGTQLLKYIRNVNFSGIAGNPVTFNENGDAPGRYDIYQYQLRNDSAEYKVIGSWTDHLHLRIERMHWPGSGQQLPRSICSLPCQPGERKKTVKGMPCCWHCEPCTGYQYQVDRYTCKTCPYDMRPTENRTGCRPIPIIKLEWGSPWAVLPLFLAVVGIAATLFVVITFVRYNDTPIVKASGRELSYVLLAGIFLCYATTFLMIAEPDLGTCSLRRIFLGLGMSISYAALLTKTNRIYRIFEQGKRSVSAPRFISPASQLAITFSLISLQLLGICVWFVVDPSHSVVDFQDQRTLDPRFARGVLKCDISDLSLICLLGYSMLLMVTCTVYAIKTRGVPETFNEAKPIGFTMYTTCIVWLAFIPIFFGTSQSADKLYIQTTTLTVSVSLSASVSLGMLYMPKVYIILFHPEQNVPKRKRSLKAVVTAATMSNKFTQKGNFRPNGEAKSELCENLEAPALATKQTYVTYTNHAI
Procedure: Fluorescent Imaging Plate Reader (FLIPR) Assay for mGluR4 Potentiators Cells are grown in Corning […] cm^2 flasks in DMEM growth media at 37° C. and 5% CO2. Growth media contains: […] The day prior to the experiment the cells were plated in growth medium (minus glutamine) at 50K cells/well into Becton-Dickinson 384-well PDL-coated plates using a Labsystems Multidrop (0.1 ml/well). The cells are grown overnight at 37° C. and 6% CO2. The following day, the cells are washed with Assay Buffer at 37° C. using a Skatron EMBLA cell washer (3×100 μl, aspiration 3 mm from bottom will leave 30 μl of buffer in each well). Assay buffer is Hanks balanced salt solution with 20 mM HEPES, 2.5 mM probenecid and 0.1% BSA. Fluorescent dye, 30 μl of the diluted Fluo-4-AM, is added to each well of the plate. […] The assay plates are placed back into the 6% CO2 incubator and incubated at 37° C. for 60 min. The 384-well plates are washed with Assay Buffer at 37° C. on using a cell washer (3×100 μl, aspiration 3 mm from bottom, will leave 30 μl of buffer in each well). The experimental run is initiated and after 30 sec a dose of test compound is applied. The fluorescent response elicited by test compound is monitored for 5 min, any positive response detected at this stage is attributed to agonist properties of the test compound. […] Controls for the assay include a no compound control, a positive control which is a saturating concentration, 10 uM, of the agonist L-AP4. A 10 point dose response, with either 2-fold or 3-fold dilution steps, is performed and curve fitting algorithms, suitable for a sigmoidal dose response relationship, are used to fit the data. The inflection point of the curve provides a measure of compound potency. A comparison of the maximal level of activity achieved for a test compound, relative to the response achieved with a saturating concentration of the agonist L-AP4 provides a measure of compound efficacy.

mGluR4 [2] = molecular target: T1, mGluR4; assay: mGluR4 binding assay (filtration, [3H] radiotracer displacement, in presence of L-AP4); set-up: expressed in transfected cells; host or cells: CHO cells; conditions: membranes from CHO cells expressing human mGluR4; 20 uM L-AP4; 7 nM radiotracer; 1 hour at room temperature
Procedure: Membranes were prepared from CHO cells expressing the human mGluR4 receptor. Cells were harvested using trypsin and then washed in assay buffer, assay buffer contains 50 mM HEPES, 1 mM EDTA and protease inhibitors (Boehringer Mannheim catalog #1 836 170). Harvested cells were pelleted by centrifugation and stored at −80° C. for a minimum of 12 hours. Cells were resuspended in assay buffer and lysed by a polytron, a low speed spin, 2000×g for 10 min, was used to recover unbroken cells for additional treatment using the polytron. The cleared supernatant from the low speed spins was subjected to a high speed spin, 96,000×g for 1 hour. The membrane pellet from the high speed spin was resuspended in assay buffer and used in the mGluR4 binding assay.
The binding assay follows a standard filtration binding paradigm. The binding buffer consists of 20 mM HEPES, 100 mM NaCl and 3 mM MgCl2, the pH of the buffer is 7.4. The assay is performed in a 96-well format with each well containing test compound, 25 to 50 ug of membrane protein, 20 uM L-AP4, and 7 nM radiotracer, [^3H]-N-[3-Chloro-4-(4-methyl-1,3-dioxo-1,3-dihydro-2H-isoindol-2-yl)phenyl]pyridine-2-carboxamide, which is disclosed in commonly owned U.S. patent application docket no. MRL-NOP-00030-US-PSP, filed contemporaneously with this application.
The binding reaction is incubated at room temperature for 1 hour, and then is passed through GF/B filter that was presoaked with 0.5% PEI. The cell membranes are collected on the filter and then washed five times with ˜5 ml ice cold binding buffer that contains 0.01% BSA. The washed filter plate is dried for 30 minutes at 37° C., scintillation fluid is added, and the amount of filter bound radioactivity is determined using a TopCount instrument. Total binding is determined in the absence of any test compound, but in the presence of the DMSO concentration that would result from the addition of test compound. To determine the level of non-specific binding for the radiotracer [^3H]-N-[3-Chloro-4-(4-methyl-1,3-dioxo-1,3-dihydro-2H-isoindol-2-yl)phenyl]pyridine-2-carboxamide, 5 uM of unlabeled […]N-[3-Chloro-4-(4-methyl-1,3-dioxo-1,3-dihydro-2H-isoindol-2-yl)phenyl]pyridine-2-carboxamide, is added to determine the level of non-specific binding.
A 10-point dose response, with either 2-fold or 3-fold dilution steps, is performed and curve fitting algorithms, suitable for a sigmoidal dose response relationship, are used to fit the data. The inflection point of the curve, or IC50, provides a measure of the affinity of a test compound for the mGluR4 receptor.

Compound `O=C(Nc1ccc(S(=O)(=O)Nc2ccccc2Cl)cc1)c1ccccn1` [Example 1, N-(4-{[(2-Chlorophenyl)amino]sulfonyl}phenyl)pyridine-2-carboxamide] has an EC50 (mGluR4 [1]) of 162 nM, an Emax (mGluR4 [1]) of 111% and an IC50 (mGluR4 [2]) of 33 nM.

`COc1cc(NC(=O)c2ccccn2)ccc1S(=O)(=O)Nc1ccccc1` [Example 6] showed an EC50 (mGluR4 [1]) of 3940 nM, an Emax (mGluR4 [1]) of 70% and an IC50 (mGluR4 [2]) of 6080 nM.

`Cc1ccc(NS(=O)(=O)c2ccc(NC(=O)c3ccccn3)cc2)cc1` [Example 18] showed an EC50 (mGluR4 [1]) of 1350 nM, an Emax (mGluR4 [1]) of 93% and an IC50 (mGluR4 [2]) of 1100 nM.

With `O=C(Nc1ccc(S(=O)(=O)Nc2ccccc2Br)cc1)c1ccccn1` [Example 30] the EC50 (mGluR4 [1]) was 134 nM, the Emax (mGluR4 [1]) was 110% and the IC50 (mGluR4 [2]) was 141 nM.

With `O=C(Nc1ccc(S(=O)(=O)Nc2ccccc2Cc2ccccc2)cc1)c1ccccn1` [Example 41] the EC50 (mGluR4 [1]) was 480 nM, the Emax (mGluR4 [1]) was 124% and the IC50 (mGluR4 [2]) was 182 nM.
